PubChem BioAssay (NCI)
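48-hour exposure; five concentrations; linearly interpolated endpoints. GI50: concentration for 50% inhibition of growth. The concentration for full growth arrest is given as TGI.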

Key:
Assay in all cases: inhibition of tumour cell growth, NCI panel, 48 h
[1] = tested on: SF-295 CNS
[2] = tested on: SNB-75 CNS
[3] = tested on: OVCAR-5 ovarian
[4] = tested on: PC-3 prostate
[5] = tested on: HCC-2998 colon
[6] = tested on: M14 melanoma
[7] = tested on: MDA-MB-231 breast
[8] = tested on: DU-145 prostate
[9] = tested on: HOP-92 NSCLC
[10] = tested on: TK-10 renal
[11] = tested on: A498 renal
[12] = tested on: BT-549 breast
[13] = tested on: SK-OV-3 ovarian
[14] = tested on: KM12 colon
[15] = tested on: SF-539 CNS
[16] = tested on: UACC-62 melanoma
[17] = tested on: HS 578T breast
[18] = tested on: SK-MEL-2 melanoma
[19] = tested on: LOX IMVI melanoma
[20] = tested on: OVCAR-3 ovarian
[21] = tested on: UO-31 renal
[22] = tested on: OVCAR-8 ovarian
[23] = tested on: RPMI-8226 leukemia
[24] = tested on: CCRF-CEM leukemia
[25] = tested on: SK-MEL-5 melanoma
[26] = tested on: A549 NSCLC
[27] = tested on: MOLT-4 leukemia
[28] = tested on: HCT-116 colon
[29] = tested on: SF-268 CNS
[30] = tested on: NCI-H460 lung
[31] = tested on: HCT-15 colon
[32] = tested on: CAKI-1 renal
[33] = tested on: UACC-257 melanoma
[34] = tested on: MALME-3M melanoma
[35] = tested on: IGROV1 ovarian
[36] = tested on: SN12C renal
[37] = tested on: ACHN renal
[38] = tested on: T-47D breast
[39] = tested on: EKVX NSCLC
[40] = tested on: K-562 leukemia
[41] = tested on: 786-0 renal
[42] = tested on: SK-MEL-28 melanoma
[43] = tested on: HOP-62 NSCLC
[44] = tested on: NCI/ADR-RES ovarian
[45] = tested on: NCI-H23 lung
[46] = tested on: MCF7 breast
[47] = tested on: SNB-19 CNS
[48] = tested on: HT29 colon
[49] = tested on: MDA-MB-435
[50] = tested on: U251 CNS
[51] = tested on: NCI-H522 lung
[52] = tested on: COLO 205 colon
[53] = tested on: SR leukemia
[54] = tested on: SW-620 colon
[55] = tested on: NCI-H226 lung

## O=C(Nc1ccc([N+](=O)[O-])cc1)c1ccc([N+](=O)[O-])cc1
[1]
  TGI: > 100 µM
[2]
  TGI: > 100 µM

## O=C1/C(=C\c2cn(CC(O)CN3CCCCC3)c3ccccc23)c2ccccc2N1c1c(Cl)cccc1Cl (stereo not drawn)
[1]
  GI50: 1.8 µM
  TGI: 3.3 µM
[3]
  GI50: 1.57 µM
  TGI: 2.92 µM
[4]
  GI50: 1.41 µM
  TGI: 2.81 µM
[5]
  GI50: 1.73 µM
  TGI: 3.16 µM
[6]
  GI50: 1.66 µM
  TGI: 3.1 µM
[7]
  GI50: 1.79 µM
  TGI: 3.21 µM
[8]
  GI50: 1.88 µM
  TGI: 3.32 µM
[9]
  GI50: 1.59 µM
  TGI: 3.2 µM
[10]
  GI50: 1.82 µM
  TGI: 3.29 µM
[11]
  GI50: 1.7 µM
  TGI: 3.24 µM
[12]
  GI50: 1.71 µM
  TGI: 3.18 µM
[13]
  GI50: 1.63 µM
  TGI: 3.13 µM
[14]
  GI50: 1.89 µM
  TGI: 3.37 µM
[2]
  GI50: 1.3 µM
  TGI: 2.63 µM
[15]
  GI50: 1.68 µM
  TGI: 3.18 µM
[16]
  GI50: 1.76 µM
  TGI: 3.2 µM
[17]
  GI50: 2.27 µM
  TGI: 5.78 µM

## COc1ccc(Cn2c3c(c4c(O)cccc42)C(=O)c2ccccc2-3)cc1
[18]
  GI50: 18.2 µM
  TGI: 45.9 µM
[19]
  GI50: 18.8 µM
  TGI: 47.8 µM
[20]
  GI50: 14.3 µM
  TGI: 28.7 µM
[21]
  GI50: 13.8 µM
  TGI: 67.7 µM
[22]
  GI50: 3.08 µM
  TGI: 13.2 µM
[23]
  GI50: 11.8 µM
  TGI: 33.9 µM
[24]
  GI50: 73.6 µM
  TGI: > 100 µM
[1]
  GI50: 12.6 µM
  TGI: 26.2 µM
[25]
  GI50: 7.76 µM
  TGI: 20.6 µM
[26]
  GI50: 8.52 µM
  TGI: 32 µM
[27]
  GI50: 15.8 µM
  TGI: 49.3 µM
[28]
  GI50: 9.16 µM
  TGI: 21.5 µM
[3]
  GI50: 10 µM
  TGI: 21.6 µM
[4]
  GI50: 12.8 µM
  TGI: 25.4 µM
[29]
  GI50: 8.75 µM
  TGI: 29.1 µM
[5]
  GI50: 8.26 µM
  TGI: 21.7 µM
[30]
  GI50: 12.8 µM
  TGI: 36.5 µM
[31]
  GI50: 16.1 µM
  TGI: 89.8 µM
[32]
  GI50: 14.9 µM
  TGI: 29.6 µM
[33]
  GI50: 11.7 µM
  TGI: 27.2 µM
[34]
  GI50: 8.71 µM
  TGI: 22.4 µM
[35]
  GI50: 11.2 µM
  TGI: > 100 µM
[6]
  GI50: 14.4 µM
  TGI: 38 µM
[36]
  GI50: 15.6 µM
  TGI: 29 µM
[37]
  GI50: 5.14 µM
  TGI: 16.6 µM
[38]
  GI50: 11 µM
  TGI: 37.9 µM
[39]
  GI50: 12 µM
  TGI: 27.7 µM
[7]
  GI50: 12.8 µM
  TGI: 25.4 µM
[40]
  GI50: 24.3 µM
  TGI: > 100 µM
[8]
  GI50: 12.5 µM
  TGI: 24.9 µM
[9]
  GI50: 0.233 µM
  TGI: 4.23 µM
[41]
  GI50: 4.02 µM
  TGI: 16.7 µM
[42]
  GI50: 11.6 µM
  TGI: 25 µM
[43]
  GI50: 4.39 µM
  TGI: 14.9 µM
[10]
  GI50: 4.36 µM
  TGI: 18.3 µM
[44]
  GI50: 2.51 µM
  TGI: 11.3 µM
[45]
  GI50: 9.24 µM
  TGI: 22 µM
[46]
  GI50: 10.7 µM
  TGI: 28.1 µM
[47]
  GI50: 6.05 µM
  TGI: 23.4 µM
[48]
  GI50: 16 µM
  TGI: 38.5 µM
[49]
  GI50: 13.3 µM
  TGI: 30.8 µM
[13]
  GI50: 14.9 µM
  TGI: 28.1 µM
[14]
  GI50: 7.65 µM
  TGI: 22 µM
[50]
  GI50: 14.1 µM
  TGI: 27.1 µM
[51]
  GI50: 12.3 µM
  TGI: 93.1 µM
[52]
  GI50: 25.9 µM
  TGI: 92.3 µM
[53]
  GI50: 13.9 µM
  TGI: 30.5 µM
[16]
  GI50: 14.5 µM
  TGI: 30.1 µM
[54]
  GI50: 12.6 µM
  TGI: 36.9 µM
[17]
  GI50: 4.44 µM
  TGI: 20.4 µM
[55]
  GI50: 13.4 µM
  TGI: 32.8 µM
